# Test results reported in article PMC3728092, “Improvement of Pharmacokinetics Behavior of Apocynin by Nitrone Derivatization: Comparative Pharmacokinetics of Nitrone-Apocynin and its Parent Apocynin in Rats” (PLoS ONE, 2013).
# Several values for one entry are separate records, joined by “and”; a condition that tells them apart may be missing. Identical values can stand only once. Like-named read-outs stand apart in the source and are kept apart here.
# Columns and labels:
# [1] = Single-dose pharmacokinetic study (intravenous and intragastric) with HPLC-UV plasma assay, non-compartmental analysis; assay type: in vivo, Sprague-Dawley rats; conditions: rat; for half-life / bioavailability / Cmax / Tmax / MRT last / clearance: male, Sprague-Dawley, plasma; for bioavailability: oral, read-out: F (absolute oral bioavailability); for MRT last: read-out: MRT0–t (converted)
# Experimental: (§1) Male Sprague-Dawley rats, weighing 210–290 g, were fasted for 12 h but with free access to water before dosing. The rats were randomly divided into groups of intravenous AN-1, intravenous apocynin, intragastric AN-1 and intragastric apocynin. […] Apocynin was dissolved in a mixture of propylene glycol-saline (4∶6, v/v). The single-dose pharmacokinetic study was performed. For AN-1, three different doses (20, 40 and 80 mg/kg) were administered for intravenous study (n = 6–8) and one dose (40 mg/kg) was given for intragastric study (n = 6). For apocynin, 50 mg/kg, an equimolar dose to 80 mg/kg (0.302 mmol/kg) of AN-1, was administered for both intravenous (n = 8) and intragastric studies (n = 6). A day before dosing, a cannula was introduced into jugular vein on rats for intravenous dosing and blood sampling in all groups.
# Blood samples (0.4 mL) was collected via jugular vein into heparinized tubes at 0 min (before dosing) and 5, 10, 15, 30, 45, 60, 90, 120, 180, 240, 360, 480, 600, 720, 840 min for AN-1 and at 0 min (before dosing) and 2, 4, 6, 10, 15, 20, 30, 40, 50, 60 min for apocynin after intravenous and intragastric dosing. An equal volume of heparinized saline was used to flush the catheter immediately after each blood withdrawal to prevent blood clotting. The blood samples were centrifuged immediately at 10,000 rpm for 5 min at 4°C, and then the plasma was transferred and stored at −20°C until analysis.
# The profiles of analyte concentrations in rat plasma versus time were analyzed to calculate pharmacokinetic parameters by a non-compartmental model using DAS software (version 3.0.1, Chinese Mathematical Pharmacology Society).
# [2] = Stability of analytes in rat plasma under different storage conditions; assay type: in vitro ADME; conditions: for Accuracy, post-preparative stability: post-preparative QC samples; for Accuracy, post-preparative stability / Accuracy, short-term stability / Accuracy, freeze-thaw stability / Accuracy, long-term stability: n = 5; for time post-preparative solutions stable: room temperature; for Accuracy in stability test (summary) / Accuracy, short-term stability / Accuracy, freeze-thaw stability / Accuracy, long-term stability: rat plasma; for Accuracy in stability test (summary): long-term −20°C, short-term room temperature and three freeze-thaw cycles; for Accuracy, freeze-thaw stability: three freeze-thaw cycles; for Accuracy, long-term stability: −20°C for 30 days
# Experimental: The stability of analytes in rat plasma stored under different conditions was assessed at low, medium and high QC concentrations, respectively. The conditions included long-term storage at −20°C for 30 days, short-term storage at room temperature (8 h for AN-1, 24 h for apocynin), three freeze-thaw cycles treatment, and post-preparative QC samples stored at room temperature (8 h for AN-1, 24 h for apocynin). The concentrations measured from the above samples were compared with the nominal values of QC plasma samples. Samples were concluded stable and applicable to routine analysis if the deviation of the observed concentration was less than ±15% from the nominal value.
# [3] = Solubility in water (remark on dosing vehicle); assay type: physicochemical
# Experimental: as §1
# [4] = system: LPS-induced acute lung injury; set-up: method as in earlier work; conditions: rat model of LPS-induced acute lung injury; cited from earlier work
# [5] = system: RAW 264.7 macrophage cells; set-up: method as in earlier work; conditions: RAW 264.7 cells, compared to parent apocynin, cited from earlier work
# [6] = system: gp91^phox subunit of NADPH-oxidase; set-up: method as in earlier work; conditions: RAW 264.7 macrophage cells; cited from earlier work
# [7] = intravenous and oral (intragastric), range over all intravenous and intragastric dose groups, read-out: terminal elimination half-life
# [8] = po, intragastric, 40 mg/kg, n = 6
# [9] = room temperature 8 h, 0.2 µg/mL
# [10] = room temperature 8 h, 250 µg/mL
# [11] = room temperature 8 h, 400 µg/mL
# [12] = po, intragastric, 50 mg/kg, n = 6
# [13] = room temperature 24 h, 0.4 µg/mL
# [14] = room temperature 24 h, 40 µg/mL
# [15] = room temperature 24 h, 80 µg/mL
compound,measurement,setting,value
"COc1cc(C(C)=O)cc(/C=[N+](\[O-])C(C)(C)C)c1O [AN-1, (Z)-N-(5-Acetyl-2-hydroxy-3-methoxybenzylidene)-2-methylpropan-2-amine oxide]",half-life,[1]; [7],163 to 201 min
same,bioavailability,[1]; intragastric 40 mg/kg vs intravenous 40 mg/kg,78%
same,Cmax,[1]; [8],80 ± 20 µM
same,Tmax,[1]; [8],25.8 min
same,MRT last,[1]; [8],4.85 h
same,half-life,"[1]; po, intragastric, 40 mg/kg, n = 6, read-out: T1/2",201 ± 97 min
same,clearance,"[1]; intravenous, 20 mg/kg, n = 8",5 ± 1 mL/min/kg
same,MRT last,"[1]; intravenous, 20 mg/kg, n = 8",2.94 h
same,half-life,"[1]; intravenous, 20 mg/kg, n = 8, read-out: T1/2",172 ± 79.9 min
same,clearance,"[1]; intravenous, 40 mg/kg, n = 6",6 ± 1 mL/min/kg
same,MRT last,"[1]; intravenous, 40 mg/kg, n = 6",3.22 h
same,half-life,"[1]; intravenous, 40 mg/kg, n = 6, read-out: T1/2",163 ± 56.3 min
same,half-life,"[1]; intravenous, 80 mg/kg (0.302 mmol/kg), n = 8, read-out: T1/2",180 ± 44.9 min
same,clearance,"[1]; intravenous, 80 mg/kg, n = 8",5 ± 1 mL/min/kg
same,MRT last,"[1]; intravenous, 80 mg/kg, n = 8",3.42 h
same,exposure in the systemic circulation (AUC0–t) relative to apocynin,[1]; equimolar intravenous dose 0.302 mmol/kg,25 fold
same,AUC0–t,"[1]; intragastric, 40 mg/kg, n = 6",20.68 ± 3.95 mmol·min/L
same,CL,"[1]; intragastric, 40 mg/kg, n = 6",0.007 ± 0.001 L/min/kg
same,V,"[1]; intragastric, 40 mg/kg, n = 6",1.95 ± 0.90 L/kg
same,AUC0–t,"[1]; intravenous, 20 mg/kg, n = 8",14.88 ± 1.31 mmol·min/L
same,V,"[1]; intravenous, 20 mg/kg, n = 8",1.20 ± 0.54 L/kg
same,AUC0–t,"[1]; intravenous, 40 mg/kg, n = 6",26.51 ± 5.12 mmol·min/L
same,V,"[1]; intravenous, 40 mg/kg, n = 6",1.27 ± 0.32 L/kg
same,AUC0–t,"[1]; intravenous, 80 mg/kg (0.302 mmol/kg), n = 8, 80 mg/kg",61.89 mmol·min/L and 61.89 ± 7.59 mmol·min/L
same,V,"[1]; intravenous, 80 mg/kg, n = 8",1.20 ± 0.32 L/kg
same,"Accuracy, post-preparative stability",[2]; [9],88.61±0.58%
same,"Accuracy, post-preparative stability",[2]; [10],88.14±0.84%
same,"Accuracy, post-preparative stability",[2]; [11],91.96±1.51%
same,time post-preparative solutions stable,[2],at least 8 h
same,Accuracy in stability test (summary),[2],higher than 90%
same,"Accuracy, short-term stability",[2]; [9],89.96±0.31%
same,"Accuracy, short-term stability",[2]; [10],91.99±1.37%
same,"Accuracy, short-term stability",[2]; [11],91.46±0.96%
same,"Accuracy, freeze-thaw stability",[2]; 0.2 µg/mL,94.79±0.46%
same,"Accuracy, freeze-thaw stability",[2]; 250 µg/mL,95.56±0.95%
same,"Accuracy, freeze-thaw stability",[2]; 400 µg/mL,96.33±0.98%
same,"Accuracy, long-term stability",[2]; 0.2 µg/mL,92.98±1.91%
same,"Accuracy, long-term stability",[2]; 250 µg/mL,94.74±2.43%
same,"Accuracy, long-term stability",[2]; 400 µg/mL,91.92±0.86%
same,solubility in water,[3],poor solubility in water
same,activity of superoxide dismutase in the lung of model rats,[4],significantly increased
same,treatment effect for the lung injury of model rats,[4],greater treatment effect than apocynin
same,protection against t-BHP inducing oxidative cytotoxicity,[5],protected
same,ROS production,[5]; t-BHP,attenuated the ROS production markedly
same,expression of gp91^phox induced by t-BHP,[6],depressing the high expression
"COc1cc(C(C)=O)ccc1O [Apocynin, 4-hydroxy-3-methoxyacetophenone]",half-life,[1]; [7],5.9 to 6.1 min
same,bioavailability,[1]; intragastric 50 mg/kg vs intravenous 50 mg/kg,2.8%
same,Cmax,[1]; [12],8 ± 2 µM
same,Tmax,[1]; [12],5.3 min
same,MRT last,[1]; [12],0.135 h
same,half-life,"[1]; po, intragastric, 50 mg/kg, n = 6, read-out: T1/2",5.9 ± 1.8 min
same,half-life,"[1]; intravenous, 50 mg/kg (0.302 mmol/kg), n = 8, read-out: T1/2",6.1 ± 0.9 min
same,clearance,"[1]; intravenous, 50 mg/kg, n = 8",120 ± 20 mL/min/kg
same,MRT last,"[1]; intravenous, 50 mg/kg, n = 8",0.117 h
same,AUC0–t,"[1]; intragastric, 50 mg/kg, n = 6",0.07 ± 0.01 mmol·min/L
same,CL,"[1]; intragastric, 50 mg/kg, n = 6",3.67 ± 0.35 L/min/kg
same,V,"[1]; intragastric, 50 mg/kg, n = 6",31.46 ± 12.14 L/kg
same,AUC0–t,"[1]; intravenous, 50 mg/kg (0.302 mmol/kg), n = 8, 50 mg/kg",2.49 ± 0.46 mmol·min/L
same,AUC0–t,"[1]; intravenous, 50 mg/kg (0.302 mmol/kg), n = 8, listed as apocynin, 50 mg/kg",2.49 mmol·min/L
same,V,"[1]; intravenous, 50 mg/kg, n = 8",1.09 ± 0.30 L/kg
same,"Accuracy, post-preparative stability",[2]; [13],98.34±6.26%
same,"Accuracy, post-preparative stability",[2]; [14],94.57±0.60%
same,"Accuracy, post-preparative stability",[2]; [15],92.51±1.43%
same,time post-preparative solutions stable,[2],at least 8 h
same,Accuracy in stability test (summary),[2],higher than 90%
same,"Accuracy, short-term stability",[2]; [13],102.47±6.10%
same,"Accuracy, short-term stability",[2]; [14],95.52±1.01%
same,"Accuracy, short-term stability",[2]; [15],94.11±1.35%
same,"Accuracy, freeze-thaw stability",[2]; 0.4 µg/mL,102.87±1.62%
same,"Accuracy, freeze-thaw stability",[2]; 40 µg/mL,95.48±0.69%
same,"Accuracy, freeze-thaw stability",[2]; 80 µg/mL,93.60±1.79%
same,"Accuracy, long-term stability",[2]; 0.4 µg/mL,102.17±0.87%
same,"Accuracy, long-term stability",[2]; 40 µg/mL,95.18±0.34%
same,"Accuracy, long-term stability",[2]; 80 µg/mL,94.09±0.99%
